Legend:
Format in all cases: in vivo
[1] = test system: grass weeds including barnyardrass, large crabgrass, and annual bluegrass; assay: Pre-emergence treatment, grass weeds overall; details: relative to reference compounds
Experimental: (§1) A rectangular plastic pot having a surface area of 300 cm^2 was filled with sandy loam soil and mixed bed soil which were mixed at a ratio of 1:1, and then, barnyardrass (Echinochloa crusgalli), large crabgrass (Digitaria sanguinalis), blackgrass (Alopecurus myosuroides), and annual bluegrass (Poa annua), which are grass weeds, were seeded thereto. In a pot that was prepared as described above, seeds of corn, soybean, cotton, wheat, and rice were seeded. The pots were irrigated, and one day after, chemicals were sprayed thereto. The spraying was performed by using a track sprayer (R&D Sprayer, USA) equipped with a Teejet 8002 (Spraying Systems Co., USA) nozzle, and a spraying amount was adjusted at 300 L/ha. A spraying solution was prepared by dissolving test materials or references in acetone and adding the same amount of 0.2%(v/v) tween 20 aqueous solution thereto. Application rates were 500, 250, 125, and 62.5 g/ha. The pots were placed in a greenhouse in which during day, the temperature was maintained at a temperature of 25 to 30° C., and during night, the temperature was maintained at a temperature of 15 to 25° C., and the pots were periodically irrigated. Four weeks after the spraying the test materials or References, effects and phytotoxicity of the respective weeds and crops were evaluated in a scale of 0 to 10 (0: no effects, 10: complete death), and results thereof are shown in Table 4 below.

[2] = test system: Poa annua; assay: Post-emergence treatment, herbicidal efficacy on annual bluegrass; details: 4 weeks after spraying, scale 0 to 10
Experimental: as §1
(§2) Pots containing crops and weeds were prepared in the same manner as in Example 7, and then, in the second week in which crops and weeds entered into about 3 leaf stage, the test materials and the references were sprayed thereto in the same manner as described above. The rates were 1,000, 500, 250, and 125 g/ha. Four weeks after the spraying of the test materials or the references, herbicidal efficacy and phytotoxicity to the respective weeds and crops were evaluated in a scale of 0 to 10 (0: no effects, 10: complete death).

[3] = test system: Corn; assay: Pre-emergence treatment, phytotoxicity to corn; details: 500 g/ha, 4 weeks after spraying, scale 0 to 10 (0: no effects, 10: complete death)
Experimental: as §1

[4] = test system: Corn; assay: Post-emergence treatment, phytotoxicity to corn; details: post-emergence (about 3 leaf stage), 1,000 g/ha, 4 weeks after spraying, scale 0 to 10 (0: no effects, 10: complete death)
Experimental: as §1, §2

[5] = test system: Rice; assay: Post-emergence treatment, phytotoxicity to rice; details: post-emergence (about 3 leaf stage), 1,000 g/ha, 4 weeks after spraying, scale 0 to 10 (0: no effects, 10: complete death)
Experimental: as §1, §2

[6] = test system: Wheat; assay: Pre-emergence treatment, phytotoxicity to wheat; details: 500 g/ha, 4 weeks after spraying, scale 0 to 10 (0: no effects, 10: complete death)
Experimental: as §1

[7] = test system: Echinochloa crusgalli; assay: Pre-emergence treatment, herbicidal efficacy on barnyardgrass; details: 4 weeks after spraying
Experimental: as §1

[8] = test system: Alopecurus myosuroides; assay: Post-emergence treatment, herbicidal efficacy on blackgrass; details: 4 weeks after spraying, scale 0 to 10
Experimental: as §1, §2

[9] = test system: Rice; assay: Pre-emergence treatment, phytotoxicity to rice; details: 500 g/ha, 4 weeks after spraying, scale 0 to 10 (0: no effects, 10: complete death)
Experimental: as §1

[10] = test system: Poa annua; assay: Pre-emergence treatment, herbicidal efficacy on annual bluegrass; details: 4 weeks after spraying, scale 0 to 10
Experimental: as §1

[11] = test system: Soybean; assay: Post-emergence treatment, phytotoxicity to soybean; details: post-emergence (about 3 leaf stage), 1,000 g/ha, 4 weeks after spraying, scale 0 to 10 (0: no effects, 10: complete death)
Experimental: as §1, §2

[12] = test system: Digitaria sanguinalis; assay: Post-emergence treatment, herbicidal efficacy on large crabgrass; details: 4 weeks after spraying, scale 0 to 10
Experimental: as §1, §2

[13] = test system: Soybean; assay: Pre-emergence treatment, phytotoxicity to soybean; details: 500 g/ha, 4 weeks after spraying, scale 0 to 10 (0: no effects, 10: complete death)
Experimental: as §1

[14] = test system: Wheat; assay: Post-emergence treatment, phytotoxicity to wheat; details: post-emergence (about 3 leaf stage), 1,000 g/ha, 4 weeks after spraying, scale 0 to 10 (0: no effects, 10: complete death)
Experimental: as §1, §2

[15] = test system: Alopecurus myosuroides; assay: Pre-emergence treatment, herbicidal efficacy on blackgrass; details: 4 weeks after spraying, scale 0 to 10
Experimental: as §1

[16] = test system: Echinochloa crusgalli; assay: Post-emergence treatment, herbicidal efficacy on barnyardgrass; details: 4 weeks after spraying, scale 0 to 10
Experimental: as §1, §2

[17] = test system: Cotton; assay: Pre-emergence treatment, phytotoxicity to cotton; details: 500 g/ha, 4 weeks after spraying, scale 0 to 10 (0: no effects, 10: complete death)
Experimental: as §1

[18] = test system: Digitaria sanguinalis; assay: Pre-emergence treatment, herbicidal efficacy on large crabgrass; details: 4 weeks after spraying, scale 0 to 10
Experimental: as §1

[19] = test system: Cotton; assay: Post-emergence treatment, phytotoxicity to cotton; details: post-emergence (about 3 leaf stage), 1,000 g/ha, 4 weeks after spraying, scale 0 to 10 (0: no effects, 10: complete death)
Experimental: as §1, §2

[20] = 500 g/ha, scale 0 to 10 (0: no effects, 10: complete death)

CC1(COCc2c(F)cccc2F)CC(c2ccccc2Cl)=NO1 (stereo not shown) [Compound 2, 3-(2-chlorophenyl)-5-((2,6-difluorobenzyloxy)methyl)-5-methyl-4,5-dihydroisoxazole]
about 4 times: efficacy stronger than the References [1]
2: Phytotoxicity, Corn [4] | Herbicidal efficacy, Alopecurus myosuroides ([15]; 62.5 g/ha)
0: Phytotoxicity, Corn [3] | Phytotoxicity, Wheat [6] | Phytotoxicity, Rice [9] | Phytotoxicity, Soybean [13] | Herbicidal efficacy, Echinochloa crusgalli ([16]; post-emergence, 125 g/ha) | Phytotoxicity, Cotton [17]
1: Phytotoxicity, Rice [5] | Herbicidal efficacy, Alopecurus myosuroides ([8]; post-emergence, 125 g/ha) | Phytotoxicity, Soybean [11] | Phytotoxicity, Wheat [14] | Phytotoxicity, Cotton [19]
8: Herbicidal efficacy, Poa annua ([2]; post-emergence, 250 g/ha) | Herbicidal efficacy, Poa annua ([2]; post-emergence, 500 g/ha) | Herbicidal efficacy, Poa annua ([10]; 62.5 g/ha) | Herbicidal efficacy, Echinochloa crusgalli ([16]; post-emergence, 500 g/ha)
9: Herbicidal efficacy, Echinochloa crusgalli ([7]; 62.5 g/ha, scale 0 to 10) | Herbicidal efficacy, Alopecurus myosuroides ([8]; post-emergence, 1,000 g/ha) | Herbicidal efficacy, Poa annua ([10]; 125 g/ha) | Herbicidal efficacy, Digitaria sanguinalis ([18]; 62.5 g/ha)
6: Herbicidal efficacy, Digitaria sanguinalis ([12]; post-emergence, 500 g/ha) | Herbicidal efficacy, Alopecurus myosuroides ([15]; 250 g/ha)
3: Herbicidal efficacy, Alopecurus myosuroides ([15]; 125 g/ha)
7: Herbicidal efficacy, Alopecurus myosuroides ([8]; post-emergence, 500 g/ha)
5: Herbicidal efficacy, Poa annua ([2]; post-emergence, 125 g/ha) | Herbicidal efficacy, Alopecurus myosuroides ([8]; post-emergence, 250 g/ha) | Herbicidal efficacy, Digitaria sanguinalis ([12]; post-emergence, 125 g/ha) | Herbicidal efficacy, Digitaria sanguinalis ([12]; post-emergence, 250 g/ha) | Herbicidal efficacy, Echinochloa crusgalli ([16]; post-emergence, 250 g/ha)
10: Herbicidal efficacy, Poa annua ([2]; post-emergence, 1,000 g/ha) | Herbicidal efficacy, Echinochloa crusgalli ([7]; 125 g/ha, scale 0 to 10) | Herbicidal efficacy, Echinochloa crusgalli ([7]; 250 g/ha, scale 0 to 10) | Herbicidal efficacy, Echinochloa crusgalli [7, 20] | Herbicidal efficacy, Poa annua ([10]; 250 g/ha) | Herbicidal efficacy, Poa annua ([10]; 500 g/ha) | Herbicidal efficacy, Digitaria sanguinalis ([12]; post-emergence, 1,000 g/ha) | Herbicidal efficacy, Alopecurus myosuroides ([15]; 500 g/ha) | Herbicidal efficacy, Echinochloa crusgalli ([16]; post-emergence, 1,000 g/ha) | Herbicidal efficacy, Digitaria sanguinalis ([18]; 125 g/ha) | Herbicidal efficacy, Digitaria sanguinalis ([18]; 250 g/ha) | Herbicidal efficacy, Digitaria sanguinalis ([18]; 500 g/ha)

Cc1cccc(C2=NOC(C)(COCc3c(F)cccc3F)C2)c1 (stereo not shown) [Reference F]
0: Herbicidal efficacy, Poa annua ([2]; post-emergence, 125 g/ha) | Phytotoxicity, Rice [5] | Phytotoxicity, Wheat [6] | Herbicidal efficacy, Echinochloa crusgalli ([7]; 62.5 g/ha, scale 0 to 10) | Herbicidal efficacy, Alopecurus myosuroides ([8]; post-emergence, 125 g/ha) | Herbicidal efficacy, Alopecurus myosuroides ([8]; post-emergence, 250 g/ha) | Phytotoxicity, Rice [9] | Herbicidal efficacy, Poa annua ([10]; 62.5 g/ha) | Herbicidal efficacy, Poa annua ([10]; 125 g/ha) | Phytotoxicity, Soybean [11] | Herbicidal efficacy, Digitaria sanguinalis ([12]; post-emergence, 125 g/ha) | Phytotoxicity, Soybean [13] | Phytotoxicity, Wheat [14] | Herbicidal efficacy, Alopecurus myosuroides ([15]; 62.5 g/ha) | Herbicidal efficacy, Alopecurus myosuroides ([15]; 125 g/ha) | Herbicidal efficacy, Alopecurus myosuroides ([15]; 250 g/ha) | Herbicidal efficacy, Echinochloa crusgalli ([16]; post-emergence, 125 g/ha) | Phytotoxicity, Cotton [17] | Phytotoxicity, Cotton [19]
1: Phytotoxicity, Corn [3] | Herbicidal efficacy, Echinochloa crusgalli ([7]; 125 g/ha, scale 0 to 10) | Herbicidal efficacy, Digitaria sanguinalis ([18]; 62.5 g/ha)
4: Herbicidal efficacy, Alopecurus myosuroides ([8]; post-emergence, 1,000 g/ha) | Herbicidal efficacy, Digitaria sanguinalis ([12]; post-emergence, 500 g/ha) | Herbicidal efficacy, Echinochloa crusgalli ([16]; post-emergence, 500 g/ha)
6: Herbicidal efficacy, Poa annua ([2]; post-emergence, 1,000 g/ha) | Herbicidal efficacy, Digitaria sanguinalis ([12]; post-emergence, 1,000 g/ha) | Herbicidal efficacy, Echinochloa crusgalli ([16]; post-emergence, 1,000 g/ha) | Herbicidal efficacy, Digitaria sanguinalis ([18]; 250 g/ha)
9: Herbicidal efficacy, Poa annua ([10]; 500 g/ha)
2: Phytotoxicity, Corn [4] | Herbicidal efficacy, Alopecurus myosuroides ([8]; post-emergence, 500 g/ha) | Herbicidal efficacy, Digitaria sanguinalis ([18]; 125 g/ha)
5: Herbicidal efficacy, Poa annua ([2]; post-emergence, 500 g/ha) | Herbicidal efficacy, Echinochloa crusgalli ([7]; 250 g/ha, scale 0 to 10) | Herbicidal efficacy, Poa annua ([10]; 250 g/ha)
10: Herbicidal efficacy, Echinochloa crusgalli [7, 20] | Herbicidal efficacy, Digitaria sanguinalis ([18]; 500 g/ha)
3: Herbicidal efficacy, Poa annua ([2]; post-emergence, 250 g/ha) | Herbicidal efficacy, Digitaria sanguinalis ([12]; post-emergence, 250 g/ha) | Herbicidal efficacy, Alopecurus myosuroides ([15]; 500 g/ha) | Herbicidal efficacy, Echinochloa crusgalli ([16]; post-emergence, 250 g/ha)
